The source of these data is US20230271142A1, “METHODS OF PREPARING SOLID PARTICULATE MATERIALS” (MICROPORE TECHNOLOGIES LIMITED, priority 2020, published 2023).

Structures are written as SMILES. “And” between values parts separate entries of the source, which are not always exact repeats. Equal entries are not always repeated.

Assay type in all cases: physicochemical
Data set [1] is described as follows: Effect of aqueous phase surfactant on carbamazepine crystals produced via LDC (Jorin ViPA). To be noted: for D10 / D50 / D90 / Volume Mean: LDC. On the procedure:
0.4 g of Carbamazepine was dissolved in 10 ml methanol in a beaker at 45° C. to make up the organic phase. In one instance, 0.5% Pluronic PEG P123 (Mn˜5,800) in DI water was used as the aqueous phase. In another instance, 0.5% HPMC (Mn˜10,000) in DI water was used as the aqueous phase.
The LDC was configured with a membrane with 10 μm pores, spaced 200 μm apart in a ring formation. The stirrer speed was set at 14V (1750 rpm), and the organic phase injection rate set at 10 ml/min. The line was primed with organic phase and the aqueous was poured into the stirred cell. The organic phase addition was started and ended when 3 ml of DP was injected.
The solution was left to stir until precipitation was visible. The crystals were analyzed via microscopy and Jorin ViPA. The results are relayed in FIG. 18 and Table 7.

A short description of data set [2]: Crystal size distribution of metformin crystals produced via LDC (Jorin ViPA). The protocol: 0.4 g of Metformin was dissolved in 10 ml methanol in a beaker to make up the organic phase. 0.5% Tween 20 in […] was used as the aqueous phase.
The LDC was configured with a membrane with 10 μm pores, spaced 200 μm apart in a ring-shape. The stirrer speed was set at 14V (1750 rpm), and the injection rate set at 10 ml/min. The line was primed with organic phase and the aqueous phase was poured into the dispersion cell. Addition of the organic phase was started and ended when 3 ml of DP was injected.
The solution was left to stir until precipitation was visible. The crystals were analyzed via microscopy and Jorin ViPA. The results are relayed in FIG. 23 and Table 9.

The nature of data set [3]: Crystal size distribution of paracetamol crystals from CXF by Jorin Visual Particle Size Analyser (ViPA). On the procedure: A solution of paracetamol in ethanol (0.3 g/ml) was prepared, alongside an aqueous phase consisting of 0.5% wt. PEG […] in DI water. The CXF was configured with a membrane with 10 μm pores, spaced 200 μm apart in a square grid. A 9.5 mm insert was used. The materials were pumped using gear pumps. The aqueous continuous phase was pumped through the annulus at the center of the membrane. The organic disperse phase was pumped through the top port of the device calibrated at a rate of […], through the membrane and into the flow of continuous phase at 200 ml/min. The solution was collected in a beaker and stirred with an overhead stirrer at 500 rpm for 10-15 minutes. The experiment was repeated 3 times. The resultant crystal suspension was examined via microscopy (see FIG. 1), and Jorin Visual Particle Size Analyser (ViPA) for crystal size and uniformity, (FIG. 2 and Table 1).

A short description of data set [4]: Crystal size distribution of piroxicam crystals from CXF by laser diffraction (Beckmann Coulter LS-230). Conditions: 5 μm pores. The protocol:
The CXF was configured with a membrane with 5 μm pores, spaced 45 μm apart in a square grid. A 9.5 mm insert was used. The materials were pumped using gear pumps. The aqueous continuous phase was pumped at […] through the annulus at the center of the membrane. The organic disperse phase was pumped at 17 mL/min through the top port of the device, through the membrane and into the flow of continuous phase. The solution was collected in a 250 ml beaker and stirred with an overhead stirrer at 500 rpm for 10-15 minutes. The crystals were analyzed via microscopy and Laser Diffraction (Beckmann Coulter LS-230). The results are relayed in FIGS. 4 and 5 and Table 2.

The nature of data set [5]: Effect of disperse phase flow rate on size distribution of telmisartan particles (CXF, laser diffraction). To be noted: for D10 / D50 / D90 / Volume Mean: CXF, 10 μm pores. The protocol:
A solution of telmisartan in DMSO (0.06 g/ml) was prepared as the organic phase. The aqueous phase was composed of distilled water. The CXF was configured with a membrane with 10 μm pores, spaced 200 μm apart in a square grid. A 9.5 mm insert was used. The materials were pumped using gear pumps. The aqueous continuous phase was pumped through the annulus at the center of the membrane at […]. The organic disperse phase was pumped through the top port of the device at rates of […], through the membrane and into the flow of continuous phase that was calibrated. The solution was collected in a beaker and stirred with an overhead stirrer at 500 rpm for 5-10 minutes.

Data set [6] can be described thus: Effect of membrane pore diameter on size distribution of telmisartan particles (CXF, laser diffraction). To be noted: for D10 / D50 / D90 / Volume Mean: CXF, DP 58 mL/min. On the procedure: A solution of telmisartan in DMSO (0.06 g/ml) was prepared as the organic phase. The aqueous phase was composed of distilled water. The CXF was configured with membranes of different pore sizes that included 5, 10, 20 and 40 μm pores, spaced 200 μm apart in a square grid. A 9.5 mm insert was used. The materials were pumped using gear pumps. The aqueous continuous phase was pumped through the annulus at the center of the membrane at a rate of 464 ml/min. The organic disperse phase was pumped through the top port of the device at a rate of 58 mL/min, through the membrane pores and into the flow of continuous phase. The solution was collected in a beaker and stirred with an overhead stirrer at 500 rpm for 5-10 minutes.

Data set [7] in a line: Particle size distribution of amorphous telmisartan produced via LDC and CXF (laser diffraction). Conditions: three runs; for D10 / D50 / D90 / Volume Mean D[4,3]: 10 μm pores, ± standard deviation; for StDev: of the size distribution. On the procedure:
Reproducibility of the Production of Amorphous Telmisartan and Translation from Stirred Cell LDC to Continuous Crossflow CXF Devices A solution of telmisartan in DMSO (0.06 g/ml) was prepared for use as the organic phase. An aqueous phase of 50 ml of DI water was prepared. The LDC was configured with a membrane with 10 μm pores, spaced 200 μm apart in a square grid, in a ring sat underneath a stirrer paddle. […] The stirrer was set to […] (1750 rpm). […] The LDC runs were repeated three times. Additionally, a solution of telmisartan in DMSO (0.06 g/ml) was prepared as an organic phase. An aqueous phase was composed of distilled water. A CXF was configured with a membrane with 10 μm pores, spaced 200 μm apart in a square grid. A 9.5 mm insert was used. The materials were pumped using gear pumps. The aqueous continuous phase was pumped through the annulus at the center of the membrane at a rate of 464 ml/min. The organic disperse phase was pumped through the top port of the device at a rate of 58 mL/min, through the membrane pores and into the flow of continuous phase. This preserved the 8:1 CP:DP ratio used in the LDC experiments and generated a similar shear profile. The solution was collected in a beaker and stirred with an overhead stirrer at 500 rpm for 5-10 minutes. The CXF runs were repeated three times. The particle size distributions of material produced on the LDC are shown in Table 6, with errors given as the standard deviations, alongside those for the CXF runs.

[8] abbreviates: aqueous phase 0.5% HPMC (form III).
Where [9] appears, read: aqueous phase 0.5% P123 (form II).
Setting [10] is: 10 μm pores, methanol solution into 0.5% Tween 20 in acetonitrile.
Setting [11] is: Average ± Standard Deviation of 3 runs.
[12] abbreviates: CXF, 10 μm pores, Average ± Standard Deviation of 3 runs.
The mark [13] stands for this setting: volume distribution, CXF, 10 μm pores, ethanol solution into 0.5% PEG P123 water, single runs 1-3.
[14] abbreviates: volume distribution, ethanol solution into 0.5% HPMC water.
Where [15] appears, read: disperse phase 58 mL/min (average of three).
Setting [16] is: 10 μm pore membrane (average of three).

Compound `NC(=O)N1c2ccccc2C=Cc2ccccc21` [Carbamazepine] displayed a Span in data set [1] (0.5% HPMC) of 1.10. The compound further gave a Span in data set [1] (0.5% P123) of 0.81. Further, in data set [1] (setting [8]), the D10 amounted to 28.90 μm, the D50 is reported as 44.92 μm, the D90 amounted to 78.16 μm and the Volume Mean came out at 48.84 μm. In data set [1] (setting [9]), this compound showed a D10 of 29.92 μm, a D50 of 42.37 μm, a D90 of 64.09 μm and a Volume Mean of 45.79 μm.
`CN(C)C(=N)N=C(N)N` [Metformin]: in data set [2], the Span is 1.09. Also, in data set [2] (10 μm pores), the “Size Mean” value turned out to be 12.430 μm and the “Volume Mean” value amounted to 53.10 μm. In data set [2] (setting [10]), this compound gave a D10 of 25.63 μm, a D50 of 50.80 μm and a D90 of 81.03 μm.
In data set [3] (setting [11]), `CC(=O)Nc1ccc(O)cc1` [Paracetamol, paracetamol] yielded a CV % of 39.07 ± 1.660% and a Span of 1.100 ± 0.066. Moreover, the “Volume Mean D[4,3]” value in data set [3] (CXF, 10 μm pores, ethanol solution into 0.5% PEG P123 water, single runs 1-3) is 45.37 μm and 44.28 μm and 41.17 μm. In data set [3] (setting [12]), the D10 was determined as 23.81 ± 0.894 μm, the D50 was determined as 40.42 ± 0.573 μm, the D90 came to 68.31 ± 3.604 μm and the “Volume Mean D[4,3]” value is reported as 43.61 ± 1.258 μm. Moreover, the Span in data set [3] (CXF, 10 μm pores, single runs 1-3) is 1.232 and 1.044 and 1.024. This compound also had a StDev in data set [3] (of the size distribution, Average ± Standard Deviation of 3 runs) of 17.05 ± 1.021 μm. Moreover, in data set [3] (setting [13]), the D10 is 24.12 μm and 25.18 μm and 22.13 μm; the D50 is 41.15 μm and 40.82 μm and 39.29 μm; the D90 was 74.81 μm and 67.77 μm and 62.36 μm.
In the case of `CN1C(C(=O)Nc2ccccn2)=C(O)c2ccccc2S1(=O)=O` [Piroxicam], the Span in data set [4] worked out at 1.78. In addition, the Mean in data set [4] (volume distribution) is listed as 6.978 μm. In data set [4] (setting [14]), the D10 stood at 1.240 μm, the D50 is 6.562 μm and the D90 was 12.96 μm.
As for `CCCc1nc2c(C)cc(-c3nc4ccccc4n3C)cc2n1Cc1ccc(-c2ccccc2C(=O)O)cc1` [Telmisartan, telmisartan], in data set [5] (disperse phase 15 mL/min), the D10 was 4.653 μm, the D50 was 10.11 μm, the D90 stood at 15.76 μm and the “Volume Mean” value amounted to 10.17 μm. The compound also came in with a Span in data set [5] (disperse phase 15 mL/min) of 1.099. Besides, in data set [5] (disperse phase 29 mL/min), the D10 stood at 4.981 μm, the D50 is 10.09 μm, the D90 turned out to be 18.9 μm and the “Volume Mean” value is 11.79 μm. Also, the Span in data set [5] (disperse phase 29 mL/min) is reported as 1.379. For the same compound, in data set [5] (setting [15]), the D10 turned out to be 7.359 μm, the D50 was 15.66 μm, the D90 came out at 28.00 μm and the “Volume Mean” value was 17.11 μm. In data set [5] (setting [15]), the Span was 1.318. In data set [6] (5 μm pore membrane), this compound registered a C.V of 53.31%, a D10 of 6.506 μm, a D50 of 13.01 μm and a D90 of 22.83 μm. The “Volume Mean” value in data set [6] (5 μm pore membrane) worked out at 14.31 μm. In data set [6] (setting [16]), this compound registered a C.V of 50.06%, a D10 of 7.359 μm, a D50 of 15.66 μm and a D90 of 28.00 μm. Also, the “Volume Mean” value in data set [6] (setting [16]) turned out to be 17.11 μm. In data set [6] (20 μm pore membrane), this compound returned a C.V of 57.77%, a D10 of 6.555 μm, a D50 of 18.72 μm and a D90 of 37.68 μm. In addition, the “Volume Mean” value in data set [6] (20 μm pore membrane) turned out to be 20.60 μm. Moreover, in data set [6] (40 μm pore membrane), the C.V turned out to be 56.41%, the D10 was found to be 8.451 μm, the D50 is 23.16 μm and the D90 is recorded as 45.99 μm. The “Volume Mean” value in data set [6] (40 μm pore membrane) was determined as 25.42 μm. Further, in data set [7] (CXF), the D10 is given as 7.359 ± 1.096 μm, the D50 is listed as 15.66 ± 1.558 μm, the D90 was 28.0 ± 2.091 μm and the “Volume Mean D[4,3]” value turned out to be 17.11 ± 1.538 μm. Further, in data set [7] (CXF), the CV is given as 50.57 ± 3.09%, the Span is 1.389 ± 0.070 and the StDev is given as 8.565 ± 0.275 μm. Besides, in data set [7] (LDC), the D10 was 6.952 ± 0.357 μm, the D50 was 14.32 ± 0.693 μm, the D90 is given as 26.43 ± 1.268 μm and the “Volume Mean D[4,3]” value amounted to 15.79 ± 0.755 μm. In data set [7] (LDC), this compound registered a CV of 51.07 ± 0.937%, a Span of 1.360 ± 0.028 and a StDev of 8.066 ± 0.430 μm.
